Usually Ki stands for a measure of affinity in units of concentration, obtained from inhibition or displacement. Read a low Ki as higher affinity.

The target of test [1] is 5-hydroxytryptamine receptor 7 (Rattus norvegicus, UniProt P32305). Nature of the test: Inhibition of [3H]-5-CT binding to 5-hydroxytryptamine 7 receptor of rat cortical membranes. The test is classed as cell membranes, Membrane.
The target in test [2] is T1, Adrenergic receptor alpha-2 (Rattus norvegicus, UniProt P22086+P19328+P22909).
T1 sequence (P22086 whole entry): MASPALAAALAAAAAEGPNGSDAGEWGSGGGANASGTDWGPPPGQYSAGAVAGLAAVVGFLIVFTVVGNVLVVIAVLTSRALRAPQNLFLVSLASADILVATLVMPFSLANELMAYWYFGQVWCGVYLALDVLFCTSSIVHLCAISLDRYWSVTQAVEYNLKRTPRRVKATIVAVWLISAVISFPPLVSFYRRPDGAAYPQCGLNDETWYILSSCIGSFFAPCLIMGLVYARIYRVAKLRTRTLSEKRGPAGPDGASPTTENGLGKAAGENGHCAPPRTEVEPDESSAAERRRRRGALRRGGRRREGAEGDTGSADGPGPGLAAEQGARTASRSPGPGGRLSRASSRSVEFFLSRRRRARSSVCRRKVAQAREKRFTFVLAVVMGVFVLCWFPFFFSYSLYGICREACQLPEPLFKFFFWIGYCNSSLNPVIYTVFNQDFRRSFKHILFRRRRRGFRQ
T1 sequence (P19328 whole entry): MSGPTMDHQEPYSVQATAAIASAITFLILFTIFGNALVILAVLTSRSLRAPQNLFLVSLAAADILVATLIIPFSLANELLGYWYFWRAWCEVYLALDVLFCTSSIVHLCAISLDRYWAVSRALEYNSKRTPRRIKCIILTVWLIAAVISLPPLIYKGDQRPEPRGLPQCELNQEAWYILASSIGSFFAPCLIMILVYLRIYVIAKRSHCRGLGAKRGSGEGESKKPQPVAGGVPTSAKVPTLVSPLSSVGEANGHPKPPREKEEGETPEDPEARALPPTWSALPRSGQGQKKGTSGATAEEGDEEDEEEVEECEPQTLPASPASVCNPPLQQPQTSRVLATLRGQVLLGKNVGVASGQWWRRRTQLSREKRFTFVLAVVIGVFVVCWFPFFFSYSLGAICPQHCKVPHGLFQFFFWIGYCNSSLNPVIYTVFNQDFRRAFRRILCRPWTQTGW
T1 sequence (P22909 whole entry): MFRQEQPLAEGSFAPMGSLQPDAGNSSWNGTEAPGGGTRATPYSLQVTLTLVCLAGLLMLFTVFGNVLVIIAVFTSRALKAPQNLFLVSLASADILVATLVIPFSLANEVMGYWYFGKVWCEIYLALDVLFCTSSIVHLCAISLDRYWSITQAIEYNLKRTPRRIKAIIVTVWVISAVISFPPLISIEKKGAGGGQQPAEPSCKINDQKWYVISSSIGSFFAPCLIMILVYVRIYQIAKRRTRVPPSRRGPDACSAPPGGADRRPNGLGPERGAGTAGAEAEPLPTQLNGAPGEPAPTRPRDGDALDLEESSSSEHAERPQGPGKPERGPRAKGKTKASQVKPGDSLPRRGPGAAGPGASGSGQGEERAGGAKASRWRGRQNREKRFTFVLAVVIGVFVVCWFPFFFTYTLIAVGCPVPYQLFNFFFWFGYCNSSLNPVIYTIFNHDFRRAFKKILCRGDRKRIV
As to the kind of experiment: Affinity for Alpha-2 adrenergic receptor of rat cortical membranes.

Test [3] has as its target T2, Adrenergic receptor alpha-1 (Rattus norvegicus, UniProt P15823+P23944+P43140).
T2 sequence (P15823 whole entry): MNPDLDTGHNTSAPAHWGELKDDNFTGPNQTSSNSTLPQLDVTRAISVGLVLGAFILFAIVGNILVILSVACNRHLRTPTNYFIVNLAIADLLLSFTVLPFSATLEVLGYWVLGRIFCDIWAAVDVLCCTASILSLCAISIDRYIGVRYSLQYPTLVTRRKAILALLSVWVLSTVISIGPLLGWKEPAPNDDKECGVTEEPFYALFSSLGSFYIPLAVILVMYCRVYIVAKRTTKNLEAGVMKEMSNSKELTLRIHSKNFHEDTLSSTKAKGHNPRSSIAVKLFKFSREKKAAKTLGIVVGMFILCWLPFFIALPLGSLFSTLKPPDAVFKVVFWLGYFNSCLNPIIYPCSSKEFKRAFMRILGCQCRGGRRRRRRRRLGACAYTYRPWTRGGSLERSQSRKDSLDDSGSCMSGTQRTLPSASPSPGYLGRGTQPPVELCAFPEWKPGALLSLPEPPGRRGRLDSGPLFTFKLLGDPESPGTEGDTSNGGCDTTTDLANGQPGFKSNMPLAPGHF
T2 sequence (P23944 whole entry): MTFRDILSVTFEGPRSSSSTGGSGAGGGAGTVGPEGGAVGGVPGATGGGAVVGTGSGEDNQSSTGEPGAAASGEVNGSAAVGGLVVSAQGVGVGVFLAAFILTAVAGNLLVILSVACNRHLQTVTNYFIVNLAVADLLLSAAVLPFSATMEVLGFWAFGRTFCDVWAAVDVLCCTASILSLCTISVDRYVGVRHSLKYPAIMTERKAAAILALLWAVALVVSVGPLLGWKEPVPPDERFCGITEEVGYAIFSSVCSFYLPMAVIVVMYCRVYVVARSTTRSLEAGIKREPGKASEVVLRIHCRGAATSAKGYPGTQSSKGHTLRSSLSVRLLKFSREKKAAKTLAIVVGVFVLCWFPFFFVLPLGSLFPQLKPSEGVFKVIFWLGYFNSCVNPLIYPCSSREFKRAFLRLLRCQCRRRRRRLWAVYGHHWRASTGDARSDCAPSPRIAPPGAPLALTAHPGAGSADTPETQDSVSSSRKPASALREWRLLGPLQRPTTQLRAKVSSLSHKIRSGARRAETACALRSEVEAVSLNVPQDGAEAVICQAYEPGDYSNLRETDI
T2 sequence (P43140 whole entry): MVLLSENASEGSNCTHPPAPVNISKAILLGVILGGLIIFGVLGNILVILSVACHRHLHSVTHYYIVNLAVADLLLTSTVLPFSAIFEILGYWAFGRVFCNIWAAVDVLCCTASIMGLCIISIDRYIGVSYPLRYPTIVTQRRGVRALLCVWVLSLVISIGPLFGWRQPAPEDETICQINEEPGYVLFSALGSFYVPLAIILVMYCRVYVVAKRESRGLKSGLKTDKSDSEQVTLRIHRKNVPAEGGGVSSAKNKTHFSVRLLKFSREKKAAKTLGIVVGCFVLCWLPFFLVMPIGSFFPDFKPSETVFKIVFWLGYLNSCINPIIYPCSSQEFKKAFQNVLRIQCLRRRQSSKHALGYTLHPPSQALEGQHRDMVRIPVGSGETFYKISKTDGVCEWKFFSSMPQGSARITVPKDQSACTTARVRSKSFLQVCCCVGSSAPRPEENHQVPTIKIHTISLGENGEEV
Nature of the test: Affinity for Alpha-1 adrenergic receptor of rat cortical membranes.

5-hydroxytryptamine receptor 7, sequence (P32305 whole entry): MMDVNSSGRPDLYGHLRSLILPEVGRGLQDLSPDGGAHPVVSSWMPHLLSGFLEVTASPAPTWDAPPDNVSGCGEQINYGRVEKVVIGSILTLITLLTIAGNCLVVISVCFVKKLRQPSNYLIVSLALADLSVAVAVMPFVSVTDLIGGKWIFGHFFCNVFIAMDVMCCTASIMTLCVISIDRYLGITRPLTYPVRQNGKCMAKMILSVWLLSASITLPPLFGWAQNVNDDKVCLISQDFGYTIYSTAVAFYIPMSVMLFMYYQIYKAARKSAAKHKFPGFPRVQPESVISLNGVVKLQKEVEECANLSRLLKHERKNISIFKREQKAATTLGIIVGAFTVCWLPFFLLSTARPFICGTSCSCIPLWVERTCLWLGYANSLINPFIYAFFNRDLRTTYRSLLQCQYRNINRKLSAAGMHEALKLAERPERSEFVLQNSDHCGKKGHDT

In the case of `Cc1c(NC2=NCCN2)cccc1-c1cccc(C#N)c1.Cl`, affinity in test [1] was put at a Ki of 170 nM. The results for the “Log Ki” value in test [2] and in test [3] were -7.66 and -7.04, respectively.
For `Cc1c(NC2=NCCN2)cccc1-c1cccc(F)c1` the same measures were 28.2 nM, -7.58 and -6.56.
For `Cc1c(NC2=NCCN2)cccc1-c1cccc(C(C)C)c1` the same measures were 182 nM, -6.96 and -5.92.
For `CC(=O)c1cccc(-c2cccc(NC3=NCCN3)c2C)c1.Cl` the same measures were 155 nM, -7.49 and -7.05.
In test [1], `Cc1c(NC2=NCCN2)cccc1-c1cccs1` gave an inhibitory constant (Ki) of 16.6 nM. Further, the “Log Ki” value was -8.21 in test [2] and -6.99 in test [3].
The corresponding values for `COc1ccc(-c2cccc(NC3=NCCN3)c2C)c(OC)c1` are 40.7 nM, -7.13 and -6.68.
For `Cc1c(NC2=NCCN2)cccc1-c1ccsc1` the same measures were 31.6 nM, -7.96 and -7.16.
The corresponding values for `Cc1c(NC2=NCCN2)cccc1-c1cccc(Cl)c1` are 26.3 nM, -7.62 and -6.88.
Take `COc1ccc(-c2cccc(NC3=NCCN3)c2C)cc1`: the Ki in test [1] was 27.5 nM. The entries for the “Log Ki” value in test [2] and in test [3] were -7.59 and -6.58, respectively.
On to `Cc1c(NC2=NCCN2)cccc1-c1ccccc1`, for which the Ki in test [1] was 16.2 nM. Moreover, the results for the “Log Ki” value in test [2] and in test [3] were -7.71 and -6.68, respectively.
The corresponding values for `Cc1cccc(-c2cccc(NC3=NCCN3)c2C)c1` are 21.4 nM, -7.75 and -6.78.
Take `Cc1c(NC2=NCCN2)cccc1-c1cccc(C(F)(F)F)c1`: affinity in test [1] was put at a Ki of 45.7 nM. The “Log Ki” value in test [2] was -7.1; in test [3], -6.59.
For the compound `COc1cccc(-c2cccc(NC3=NCCN3)c2C)c1`, the Ki in test [1] was 35.5 nM. For the same compound, the results for the “Log Ki” value in test [2] and in test [3] were -8 and -7.36, respectively.
For `Cc1c(NC2=NCCN2)cccc1-c1cccnc1` the same measures were 257 nM, -8.29 and -6.59.

The record behind these values is ChEMBL document CHEMBL1136269, “Discovery of a series of (4,5-dihydroimidazol-2-yl)-biphenylamine 5-HT7 agonists” (Bioorg Med Chem Lett, 2003).
